Data on 53 compounds can be found in patent US9290457B2, “Substituted dihydropyrimidinones and their use as inhibitors of neutrophil elastase activity” (Boehringer Ingelheim International GmbH, priority 2014, dated 2016).

This assay addresses neutrophil elastase (Homo sapiens (Human), UniProt P08246). The experiment in a line: Human Neutrophil Elastase Assay. Type of assay: biochemical. The note with it: substrate MeOSuc-Ala-Ala-Pro-Val-AMC. The procedure:
Human Neutrophil Elastase Assay
All other materials were of the highest grade commercially available.
The following buffers were used: Compound buffer: 100 mM Tris, 500 mM NaCl, adjusted to pH 7.5; Assay buffer: 100 mM Tris, 500 mM NaCl, adjusted to pH 7.5, containing 0.01% BSA.
Assay conditions: Test compounds were prediluted in DMSO and subsequently in compound buffer (5% DMSO final). […] After inactivation of the enzyme, fluorescence intensities were measured at 380 nm excitation and 460 nm emission wavelengths.
Each plate contains wells with a high value control (DMSO+enzyme+substrate) and wells with a low value control (DMSO+inactivated enzyme+substrate). IC50 values were estimated using a sigmoidal concentration response curve with variable slope. Means of low values were taken as 0%, means of high values as 100%.

neutrophil elastase, sequence (P08246 30-247): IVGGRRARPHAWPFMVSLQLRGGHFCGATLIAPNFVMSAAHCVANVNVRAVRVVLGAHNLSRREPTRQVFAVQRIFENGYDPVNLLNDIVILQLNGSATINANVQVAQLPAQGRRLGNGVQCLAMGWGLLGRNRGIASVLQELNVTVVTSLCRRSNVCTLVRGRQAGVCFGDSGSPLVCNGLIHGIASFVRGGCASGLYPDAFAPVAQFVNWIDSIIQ

The IC50 is the point on the concentration scale where inhibition reaches its midpoint. `CCOC(=O)C1=C(C)N(c2cccc(C(F)(F)F)c2)C(=O)N(C)C1c1ccc(C#N)cc1C(=O)N1CCn2cnnc2C1` (centres unmarked) [Example 3.41] yielded a 50% inhibitory concentration (IC50) of less than 1 nM. The result for `CC(=O)C1=C(C)N(c2cccc(C(F)(F)F)c2)C(=O)N(C)C1c1ccc(C#N)cc1C(=O)NCc1ccon1` (centres unmarked) [Example 1.41] reads less than 1 nM. `CC(=O)C1=C(C)N(c2cccc(C(F)(F)F)c2)C(=O)N(C)C1c1ccc(C#N)cc1-c1ccc2occc2c1` (centres unmarked) [Example 5.13]: inhibition was half-maximal at 22.6 nM (IC50). This counts as double-digit nanomolar.

In the case of `CC(=O)C1=C(C)N(c2cccc(C(F)(F)F)c2)C(=O)N(C)C1c1ccc(C#N)cc1-c1cccnc1` (centres unmarked) [Example 5.9], the 50% inhibitory concentration (IC50) turned out to be 1.4 nM. The result for `COC(=O)c1cc(C#N)ccc1C1C(C(C)=O)=C(C)N(c2cccc(C(F)(F)F)c2)C(=O)N1C` (centres unmarked) [Intermediate 5, 2-[5-Acetyl-3,6-dimethyl-2-oxo-1-(3-trifluoromethyl-phenyl)-1,2,3,4-tetrahydro-pyrimidin-4-yl]-5-cyano-benzoic acid methyl ester] reads less than 1 nM; that for `CC(=O)C1=C(C)N(c2cccc(C(F)(F)F)c2)C(=O)N(C)C1c1ccc(C#N)cc1C(=O)NC1COC1` (centres unmarked) [Example 1.13], less than 1 nM; that for `CC(=O)C1=C(C)N(c2cccc(C(F)(F)F)c2)C(=O)N(C)C1c1ccc(C#N)cc1C(=O)N1CC(O)C1` (centres unmarked) [Example 1.12], less than 1 nM. The compound `CC(=O)C1=C(C)N(c2cccc(C(F)(F)F)c2)C(=O)N(C)C1c1ccc(C#N)cc1C(=O)NCCO` (centres unmarked) [Example 1.9] gave an IC50 of less than 1 nM. In turn, `CC(=O)C1=C(C)N(c2cccc(C(F)(F)F)c2)C(=O)N(C)C1c1ccc(C#N)cc1C(=O)N1CCn2ccnc2C1` (centres unmarked) [Example 1.70] displayed an IC50 of less than 1 nM.

`CC(=O)C1=C(C)N(c2cccc(C(F)(F)F)c2)C(=O)N(C)C1c1ccc(C#N)cc1C(=O)N1CCn2cncc2C1` (centres unmarked) [Example 1.69] returned an IC50 of less than 1 nM.

Regarding `CNCCN(C)C(=O)c1cc(C#N)ccc1C1C(C(C)=O)=C(C)N(c2cccc(C(F)(F)F)c2)C(=O)N1C` (centres unmarked) [Example 2.12], the IC50 is less than 1 nM. Turning to `CC(=O)C1=C(C)N(c2cccc(C(F)(F)F)c2)C(=O)N(C)C1c1ccc(C#N)cc1-c1ccn(C)n1` (centres unmarked) [Example 5.2], the half-inhibitory concentration (IC50) came out at 1.4 nM. The result for `CC(=O)C1=C(C)N(c2cccc(C(F)(F)F)c2)C(=O)N(C)C1c1ccc(C#N)cc1-c1ccn(C)c(=O)c1` (centres unmarked) [Example 5.4] reads less than 1 nM. The result for `CC(=O)C1=C(C)N(c2cccc(C(F)(F)F)c2)C(=O)N(C)C1c1ccc(C#N)cc1C(=O)N(C)Cc1nccn1C` (centres unmarked) [Example 1.75] reads less than 1 nM; that for `CCOC(=O)C1=C(C)N(c2cccc(C(F)(F)F)c2)C(=O)N(C)C1c1ccc(C#N)cc1C(=O)N[C@H]1C[C@H]1N` (some centres unmarked) [Example 4.6], less than 1 nM.

`CCOC(=O)C1=C(C)N(c2cccc(C(F)(F)F)c2)C(=O)N(C)C1c1ccc(C#N)cc1C(=O)NC12CCC1C2` (centres unmarked) [Example 3.19] displayed an IC50 of less than 1 nM.

Turning to `CCOC(=O)C1=C(C)N(c2cccc(C(F)(F)F)c2)C(=O)N(C)C1c1ccc(C#N)cc1C(=O)NC1CCC(O)C1` (centres unmarked) [Example 3.28], the IC50 was 1.3 nM. This lies in the single-digit nanomolar range. The result for `COCCN(C)C(=O)c1cc(C#N)ccc1C1C(C(C)=O)=C(C)N(c2cccc(C(F)(F)F)c2)C(=O)N1C` (centres unmarked) [Example 1.21] reads less than 1 nM; that for `CC(=O)C1=C(C)N(c2cccc(C(F)(F)F)c2)C(=O)N(C)C1c1ccc(C#N)cc1C(=O)NCc1nncn1C` (centres unmarked) [Example 1.61], less than 1.3 nM.

In the case of `CCOC(=O)C1=C(C)N(c2cccc(C(F)(F)F)c2)C(=O)N(C)C1c1ccc(C#N)cc1C(=O)N1CCN(CC)CC1` (centres unmarked) [Example 3.2], the IC50 was determined as 3 nM. `CC(=O)C1=C(C)N(c2cccc(C(F)(F)F)c2)C(=O)N(C)C1c1ccc(C#N)cc1C(=O)NC1(C#N)CC1` (centres unmarked) [Example 1.32] returned an IC50 of less than 1 nM. The result for `CC(=O)C1=C(C)N(c2cccc(C(F)(F)F)c2)C(=O)N(C)C1c1ccc(C#N)cc1C(=O)NCc1ccc(C#N)o1` (centres unmarked) [Example 1.67] reads 1.3 nM.

For `CCOC(=O)C1=C(C)N(c2cccc(C(F)(F)F)c2)C(=O)N(C)C1c1ccc(C#N)cc1C(=O)NC1CCS(=O)(=O)C1` (centres unmarked) [Example 3.34], the IC50 amounted to 1 nM.

The compound `CC(=O)C1=C(C)N(c2cccc(C(F)(F)F)c2)C(=O)N(C)C1c1ccc(C#N)cc1C(=O)N1CCC1` (centres unmarked) [Example 1.7] yielded an IC50 of less than 1 nM.

Turning to `CCOC(=O)C1=C(C)N(c2cccc(C(F)(F)F)c2)C(=O)N(C)C1c1ccc(C#N)cc1C(=O)N1CC(O)C1` (centres unmarked) [Example 3.13], the IC50 was less than 1 nM. The result for `CC(=O)C1=C(C)N(c2cccc(C(F)(F)F)c2)C(=O)N(C)C1c1ccc(C#N)cc1C(=O)N1CC[C@@H](N)C1` (some centres unmarked) [Example 2.10] reads less than 1 nM; that for `CC(=O)C1=C(C)N(c2cccc(C(F)(F)F)c2)C(=O)N(C)C1c1ccc(C#N)cc1C(=O)N(C)Cc1cnn(C)c1` (centres unmarked) [Example 1.30], less than 1 nM; that for `CC(=O)C1=C(C)N(c2cccc(C(F)(F)F)c2)C(=O)N(C)C1c1ccc(C#N)cc1C(=O)NCc1cn(C)cn1` (centres unmarked) [Example 1.58], less than 1 nM. For `CC(=O)C1=C(C)N(c2cccc(C(F)(F)F)c2)C(=O)N(C)C1c1ccc(C#N)cc1C(=O)NC12CC(C1)C2` (centres unmarked) [Example 1.18], half-maximal inhibition (IC50) was put at 1 nM. The compound `CC(=O)C1=C(C)N(c2cccc(C(F)(F)F)c2)C(=O)N(C)C1c1ccc(C#N)cc1-c1ccco1` (centres unmarked) [Example 5.1] returned an IC50 of 1.9 nM.

Compound `CC(=O)C1=C(C)N(c2cccc(C(F)(F)F)c2)C(=O)N(C)C1c1ccc(C#N)cc1C(=O)NCc1ccnnc1` (centres unmarked) [Example 1.49] had an IC50 of less than 1 nM.

For `CC(=O)C1=C(C)N(c2cccc(C(F)(F)F)c2)C(=O)N(C)C1c1ccc(C#N)cc1C(=O)N(C)C` (centres unmarked) [Example 1.2], the half-inhibitory concentration (IC50) is less than 1 nM.

Turning to `CCOC(=O)C1=C(C)N(c2cccc(C(F)(F)F)c2)C(=O)N(C)C1c1ccc(C#N)cc1C(=O)N1CC2COCC(C1)N2` (centres unmarked) [Example 4.4], the half-maximal inhibitory concentration (IC50) came out at 11.4 nM. Turning to `CCOC(=O)C1=C(C)N(c2cccc(C(F)(F)F)c2)C(=O)N(C)C1c1ccc(C#N)cc1C(=O)N1CCC(O)CC1` (centres unmarked) [Example 3.27], inhibition was half-maximal at 2.2 nM (IC50). For `CCOC(=O)C1=C(C)N(c2cccc(C(F)(F)F)c2)C(=O)N(C)C1c1ccc(C#N)cc1-c1ccn(C)n1` (centres unmarked) [Example 14.7], the IC50 worked out at 2.4 nM. This IC50 and that of the compound before are within 1.5-fold of each other. The result for `CCOC(=O)C1=C(C)N(c2cccc(C(F)(F)F)c2)C(=O)N(C)C1c1ccc(C#N)cc1C(=O)N1CCCC1` (centres unmarked) [Example 3.12] reads less than 1 nM; that for `CC(=O)C1=C(C)N(c2cccc(C(F)(F)F)c2)C(=O)N(C)C1c1ccc(C#N)cc1C(=O)N(C)Cc1ccn(C)n1` (centres unmarked) [Example 1.78], less than 1 nM. The result for `CC(=O)C1=C(C)N(c2cccc(C(F)(F)F)c2)C(=O)N(C)C1c1ccc(C#N)cc1C(=O)NCc1ccccn1` (centres unmarked) [Example 1.46] reads less than 1 nM; that for `CC(=O)C1=C(C)N(c2cccc(C(F)(F)F)c2)C(=O)N(C)C1c1ccc(C#N)cc1-c1ncc(C)o1` (centres unmarked) [Example 7, 4-[5-Acetyl-3,6-dimethyl-2-oxo-1-(3-trifluoromethyl-phenyl)-1,2,3,4-tetrahydro-pyrimidin-4-yl]-3-(5-methyl-oxazol-2-yl)-benzonitrile], less than 1 nM. The result for `CC(=O)C1=C(C)N(c2cccc(C(F)(F)F)c2)C(=O)N(C)C1c1ccc(C#N)cc1-c1ccc2c(cnn2C)c1` (centres unmarked) [Example 5.12] reads 3 nM; that for `CCOC(=O)C1=C(C)N(c2cccc(C(F)(F)F)c2)C(=O)N(C)C1c1ccc(C#N)cc1C(=O)NCCF` (centres unmarked) [Example 3.11], less than 1 nM; that for `CC(=O)C1=C(C)N(c2cccc(C(F)(F)F)c2)C(=O)N(C)C1c1ccc(C#N)cc1-c1ccc2c(ccn2C)c1` (centres unmarked) [Example 5.14], 5.7 nM. `CC(=O)C1=C(C)N(c2cccc(C(F)(F)F)c2)C(=O)N(C)C1c1ccc(C#N)cc1C1=CN(C(=O)OC(C)(C)C)CC1` (centres unmarked) [Example 5.5] displayed a half-inhibitory concentration (IC50) of 5.3 nM.

Turning to `CC(=O)C1=C(C)N(c2cccc(C(F)(F)F)c2)C(=O)N(C)C1c1ccc(C#N)cc1-c1cnn(C)c1` (centres unmarked) [Example 5.3], the midpoint of inhibition, the IC50, lay at 1.1 nM. This IC50 lies about 4.8-fold lower than the previous one. Compound `CC(=O)C1=C(C)N(c2cccc(C(F)(F)F)c2)C(=O)N(C)C1c1ccc(C#N)cc1C1=CCOCC1` (centres unmarked) [Example 5.7] displayed an IC50 of less than 1 nM.

In turn, `CC(=O)C1=C(C)N(c2cccc(C(F)(F)F)c2)C(=O)N(C)C1c1ccc(C#N)cc1C(=O)NC1CCS(=O)(=O)C1` (centres unmarked) [Example 1.31] returned an IC50 of less than 1 nM. The result for `CC(=O)C1=C(C)N(c2cccc(C(F)(F)F)c2)C(=O)N(C)[C@@H]1c1ccc(C#N)cc1C(=O)NCC#N` [Example 13.3] reads less than 1 nM; that for `CCOC(=O)C1=C(C)N(c2cccc(C(F)(F)F)c2)C(=O)N(C)C1c1ccc(C#N)cc1C(=O)NCC(F)F` (centres unmarked) [Example 3.18], less than 1 nM. In the case of `CC(=O)C1=C(C)N(c2cccc(C(F)(F)F)c2)C(=O)N(C)C1c1ccc(C#N)cc1C(=O)N1CCc2nocc2C1` (centres unmarked) [Example 1.72], inhibition was half-maximal at 2.8 nM (IC50).

Compound `CCOC(=O)C1=C(C)N(c2cccc(C(F)(F)F)c2)C(=O)N(C)C1c1ccc(C#N)cc1C(=O)N(C)CCOC` (centres unmarked) [Example 3.24] had a half-maximal inhibitory concentration (IC50) of 1 nM. This IC50 is about 2.8-fold lower than that of the compound before. `CC(=O)C1=C(C)N(c2cccc(C(F)(F)F)c2)C(=O)N(C)C1c1ccc(C#N)cc1C(=O)NC1CCOCC1` (centres unmarked) [Example 1.24] displayed an IC50 of less than 1 nM.

`CCOC(=O)C1=C(C)N(c2cccc(C(F)(F)F)c2)C(=O)N(C)C1c1ccc(C#N)cc1C(=O)NC1CCOCC1` (centres unmarked) [Example 3.29] registered an IC50 of 1.4 nM. As to `CC(=O)C1=C(C)N(c2cccc(C(F)(F)F)c2)C(=O)N(C)C1c1ccc(C#N)cc1C(=O)O` (centres unmarked) [Intermediate 6, 2-[5-Acetyl-3,6-dimethyl-2-oxo-1-(3-trifluoromethyl-phenyl)-1,2,3,4-tetrahydro-pyrimidin-4-yl]-5-cyano-benzoic acid], half-maximal inhibition (IC50) was put at 3.93 nM.
